Assays:
[1] = tested on: histamine-induced skin vascular permeability; experiment: Inhibitory effect on histamine-induced vascular permeability in mice; assay type: in vivo, ICR mice; conditions: Mus musculus, po; 5 mg/kg intragastric 1 hour before modeling; histamine phosphate 1 ug/0.1 mL; Evans Blue absorbance at 610 nm; read-out: Inhibition rate (%)
Protocol: Intragastric administration was performed 1 hour before modeling. The model group was given the corresponding solvent. […] 10% sodium sulfide was used to depilate the back of mice (3 cm×3 cm). The mice were injected 1 ug/0.1 mL of histamine phosphate physiological saline solution into the depilation site one hour after the administration, and injected 0.25% Evans Blue solution 4 ml/kg from the tail vein immediately after the injection. After 30 minutes, the mice were dislocated and sacrificed. The blue-stained part of the skin was removed and perforated (diameter 15 mm), cut into pieces and soaked in 1 ml of acetone-saline (7:3) solution. After 24 h, it was centrifuged (3000 r/min, 10 min) to take the supernatant. The absorbance of the sample was measured with an ultraviolet spectrophotometer at a wavelength of 610 nm and a blank zero calibration with acetone-physiological saline solution.

hERG potassium channel = hERG potassium channel (Homo sapiens, UniProt Q12809); experiment: hERG potassium channel activity test; assay type: biochemical
[2] = tested on: pilocarpine-induced saliva secretion; experiment: Pilocarpine-induced salivation in rats; conditions: for saliva secretion compared with the model group: 10 mg/kg intragastric administration; for Inhibition rate (%): 10 mg/kg intragastric, pilocarpine 1 mg/kg i.p. 15 minutes later, saliva collected 10 minutes
Protocol: Rats in each group were given corresponding drugs by intragastric administration. 15 minutes later, pilocarpine (1 mg/kg, dissolved in physiological saline) was injected intraperitoneally to induce saliva secretion. The rat was immediately anesthetized by intraperitoneal injection of 10% chloral hydrate. After the rat was anesthetized, the residual saliva in the oral cavity was taken out with a cotton ball in that the weighed cotton ball (M1) was placed in the oral cavity (two under the tongue and one for each on both sides). The cotton ball was taken out 10 minutes later and the weight of the cotton ball (M2) was immediately measured.
Inhibition rate=Saliva secretion in drug administration group/Saliva secretion in model group×100%

hERG potassium channel, sequence (Q12809 whole entry): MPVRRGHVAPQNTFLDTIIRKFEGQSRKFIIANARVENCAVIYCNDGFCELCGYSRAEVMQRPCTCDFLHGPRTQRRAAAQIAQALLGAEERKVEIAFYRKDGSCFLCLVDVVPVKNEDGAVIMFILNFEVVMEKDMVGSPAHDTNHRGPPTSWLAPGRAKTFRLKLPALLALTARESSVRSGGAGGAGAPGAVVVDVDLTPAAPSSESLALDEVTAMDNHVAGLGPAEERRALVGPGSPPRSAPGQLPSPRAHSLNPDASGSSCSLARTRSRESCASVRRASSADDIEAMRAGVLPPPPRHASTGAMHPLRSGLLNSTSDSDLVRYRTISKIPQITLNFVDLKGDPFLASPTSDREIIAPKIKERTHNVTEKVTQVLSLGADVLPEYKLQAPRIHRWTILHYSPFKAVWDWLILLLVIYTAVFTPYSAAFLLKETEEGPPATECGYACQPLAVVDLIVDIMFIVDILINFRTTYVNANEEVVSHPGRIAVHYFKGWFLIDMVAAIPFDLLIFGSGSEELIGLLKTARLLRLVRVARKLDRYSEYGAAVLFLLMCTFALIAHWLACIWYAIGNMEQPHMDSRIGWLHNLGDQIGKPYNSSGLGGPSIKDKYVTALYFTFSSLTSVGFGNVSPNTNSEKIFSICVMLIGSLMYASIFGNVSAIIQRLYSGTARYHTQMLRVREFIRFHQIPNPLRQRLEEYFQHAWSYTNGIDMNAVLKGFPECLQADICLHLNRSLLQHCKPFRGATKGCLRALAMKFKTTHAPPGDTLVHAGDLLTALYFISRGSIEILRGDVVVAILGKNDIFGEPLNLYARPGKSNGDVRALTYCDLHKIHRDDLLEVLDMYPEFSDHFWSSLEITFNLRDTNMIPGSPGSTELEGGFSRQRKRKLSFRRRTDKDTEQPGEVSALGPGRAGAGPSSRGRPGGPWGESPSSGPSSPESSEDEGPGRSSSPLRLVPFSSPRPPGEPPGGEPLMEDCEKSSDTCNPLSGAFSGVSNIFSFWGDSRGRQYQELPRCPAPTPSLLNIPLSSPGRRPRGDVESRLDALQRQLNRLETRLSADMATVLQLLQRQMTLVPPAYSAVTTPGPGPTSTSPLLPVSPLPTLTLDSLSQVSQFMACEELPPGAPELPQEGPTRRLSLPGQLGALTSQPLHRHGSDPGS

| saliva secretion compared with the model group [2] | Inhibition rate (%) [2] [%] | Structure (SMILES) | inhibition in vivo at 5 mg/kg [1] [%] | IC50 (hERG potassium channel) [µM] |
| --- | --- | --- | --- | --- |
|  | 18.53 | CC(C)(C(=O)O)c1ccc(CN2CCC(=C3c4ccc(Cl)cc4CCc4cccnc43)CC2)cc1 [Example 1, 2-(4-((4-(8-chloro-5,6-dihydro-11H-benzo[5,6]cyclohept[1,2-b]pyridine-11-enyl)piperidine-1-yl)methyl)phenyl)-2-methylpropionic acid] | 52.2 | > 30 |
|  | 7.02 | CC(C)(C(=O)O)c1ccc(CCCN2CCC(=C3c4ccc(Cl)cc4CCc4cccnc43)CC2)cc1 [Example 3, 2-(4-(3-(4-(8-chloro-5,6-dihydro-11H-benzo[5,6]cyclohept[1,2-b]pyridine-11-enyl)piperidine-1-yl)propyl)phenyl)-2-methylpropionic acid] | 41.7 | > 30 |
|  | 8.23 | CC(C)(C(=O)O)c1ccc(CCCN2CCC(=C3c4ccc(Cl)cc4CCc4cccnc43)CC2)c(F)c1 [Example 8, 2-(4-(3-(4-(8-chloro-5,6-dihydro-11H-benzo[5,6]cyclohepta[1,2-b]pyridine-11-enyl)piperidine-1-yl)propyl)-3-fluorophenyl)-2-methylpropionic acid] | 34.9 | > 30 |
|  | 5.20 | Cc1cc(CCCN2CCC(=C3c4ccc(Cl)cc4CCc4cccnc43)CC2)ccc1C(C)(C)C(=O)O [Example 11, 2-(4-(3-(4-(8-chloro-5,6-dihydro-11H-benzo[5,6]cyclohepta[1,2-b]pyridine-11-enyl)piperidine-1-yl)propyl)-2-methylphenyl)-2-methylpropionic acid] | 36.9 | > 30 |
|  | 16.54 | CC(C)(C(=O)O)c1ccc(CCCN2CCC(=C3c4ccccc4CCc4cc(Cl)ccc43)CC2)cc1 [Example 21, 2-(4-(3-(4-(2-chloro-10,11-dihydro-5H-dibenzo[a,d][7]cycloheptenyl-naphthylene)piperidine-1-yl)propyl)phenyl)-2-methylpropionic acid] | 42.6 | > 30 |
|  | 11.28 | CC(C)(C(=O)O)c1ccc(C(O)CCCN2CCC(=C3c4ccc(Cl)cc4CCc4cccnc43)CC2)cc1 (stereo not drawn) [Example 29] | 64.3 | > 30 |
|  | 13.25 | CC(C)(C(=O)O)c1cccc(C(O)CCN2CCC(=C3c4ccc(Cl)cc4CCc4cccnc43)CC2)c1 (stereo not drawn) [Example 31, 2-(3-(3-(4-(8-chloro-5,6-dihydro-11H-benzo[5,6]cyclohepta[1,2-b]pyridine-11-enyl)piperidine-1-yl)-1-hydroxypropyl)phenyl)-2-methylpropionic acid] | 48 |  |
|  | 18.93 | CC(C)(C(=O)[O-])c1ccc(CCN2CCC(=C3c4ccc(Cl)cc4CCc4cccnc43)CC2)cc1.[Na+] [Example 32] |  | > 30 |

The remaining lines, values behind:

| Structure (SMILES) | saliva secretion compared with the model group [2] | Inhibition rate (%) [2] [%] | inhibition in vivo at 5 mg/kg [1] [%] | IC50 (hERG potassium channel) [µM] |
| --- | --- | --- | --- | --- |
| Cc1ccc2c(c1)CCc1cccnc1C2=C1CCN(CCCc2ccc(C(=O)O)cc2)CC1 [Compound 1, reference compound] | decreased | 84.30 | 36.1 | 2.03 |
| COc1ccccc1OCC(O)CN1CCC(=C2c3ccc(Cl)cc3CCc3cccnc32)CC1 (stereo not drawn) [Compound LHC-7, reference compound] |  | 95.60 | 53.2 | 0.248 |
| Cc1nc(C)c(CN2CCC(=C3c4ccc(Cl)cc4CCc4cccnc43)CC2)nc1C [Compound LP-2, reference compound] | decreased | 98.40 | 54.1 | 4.03 |
| CC(C)(C(=O)O)c1ccc(CCCN2CCC(=C3c4ccc(Cl)cc4CCc4cccnc43)CC2)c(C#N)c1 [Example 4, 2-(4-(3-(4-(8-chloro-5,6-dihydro-11H-benzo[5,6]cyclohepta[1,2-b]pyridine-11-ylidene)piperidine-1-yl)propyl)-3-cyano)-2-methylpropionic acid] |  | 8.72 | 65.4 | > 30 |
| CC(C)(C(=O)O)c1ccc(CCCN2CCC(=C3c4ccc(Cl)cc4CCc4cccnc43)CC2)c(OC(F)(F)F)c1 [Example 7, 2-(4-(3-(4-(8-chloro-5,6-dihydro-11H-benzo[5,6]cyclohepta[1,2-b]pyridine-11-enyl)piperidine-1-yl)propyl)-3-(trifluoromethoxy)phenyl)-2-methylpropionic acid] |  | 4.65 | 42.6 | > 30 |
| CC(C)(C(=O)O)c1ccc(C#N)c(CCCN2CCC(=C3c4ccc(Cl)cc4CCc4cccnc43)CC2)c1 [Example 26] |  | 13.28 | 68.2 | > 30 |
